Here are results for 26 molecules from patent publication US5843750A, “Sorbitol kinase, process for producing the same, and substantially pure microorganism” (priority 1994, dated 1998).

Test [1] addresses sorbitol kinase (Enterobacter ludwigii, UniProt A0AAX3LD49). It is filed as biochemical, Erwinia sp. SK-472-20. On the set-up: SK-472-20. The following applies: for Relative activity as phosphate donor: activity for ATP (final concentration 2 mM) set as 100%. Here is the method: One milliliter of a reaction mixture consisting of 0.2M Tris-HCl buffer solution (pH 8.5) 0.2 ml, 0.1M ATP 0.02 ml, 0.1M MgCl2 0.02 ml, 100 U/ml sorbitol-6-phosphate dehydrogenase (refer to referential example) 0.05 ml, 10 mM NAD 0.1 ml, 100 U/ml diaphorase (Asahi Chemical Ind. Co.) 0.05 ml, 0.25% NTB 0.1 ml, 1M sorbitol 0.1 ml, 10% Triton X-100 0.01 ml and distilled water 0.3 ml was pre-heated at 37° C. for 1 minute, and the enzyme solution 20 μl was added thereto, then the mixture was incubated for 10 minutes.
Reaction was terminated by adding 0.1N HCl 2 ml and optical density of the mixture was measured using 1.0 cm cell at 550 nm within 5 minutes (As). Also optical density of distilled water 20 μl in place of the enzyme solution was measured in the same manner as above as a blank test (Ab). Enzymatic activity is determined by difference in the absorption between the optical density of the enzyme solution (As) and the blank test (Ab), i.e. (As-Ab). A unit of enzyme activity is defined as an amount of enzyme which generate 1 μm of reduced NAD in one minutes at 37° C. and calculated by the following equation.
Enzyme activity (U/ml)=(As-AB)×0.795×dilution rate of enzyme

For test [2], the system named is sorbitol-6-phosphate dehydrogenase. It is filed as biochemical, Comamonas sp. SY-77-1. Conditions: for Relateive activity: 10 min; for Relative activity (5): substrate specificity of sorbitol-6-phosphate dehydrogenase, substance used as substrate. Here is the method: Reaction mixture 1 ml consisting of 0.2M Tris-HCl buffer solution (pH 8.0) 0.25 ml, 0.1M sorbitol-6-phosphate 0.2 ml, 10 mM NAD 0.1 ml, 100 U/ml diaphorase (Asahi Chemical Industry Co.) 0.05 ml, 0.25% NTB (nitrotetrazolium blue) 0.1 ml, 10% Triton X-100 0.01 ml and distilled water 0.29 ml was pre-heated at 37° C. for 1 minute. 0.02 ml of enzyme solution was added thereto and incubated for 10 minutes.
0.1N HCl 2 ml was added to stop the reaction, and within 5 minutes optical absorption of the reaction mixture was measured using pass length 1.0 cm cell at 550 nm (As). Optical density of the blank solution of distilled water 0.02 ml in place of the enzyme solution was measured by the same procedure (Ab). Enzyme activity was measured by the difference (As-Ab) between the optical density of the enzyme solution (As) and that of the blank (Ab). A unit of enzyme is defined as an enzyme amount which produces 1μ mole of reduced NAD at 37° C. for 1 minute. Equation is as follows.
Enzyme activity (U/ml)=(As-Ab)×0.795×enzyme dilution rate

The mark [3] stands for this setting: substrate specificity of sorbitol kinase, substance used as substrate.
The mark [4] stands for this setting: 1 mM metal ion on sorbitol-6-phosphate dehydrogenase, None = 100.
Where [5] appears, read: metal ion or chemical modifier 2 mM in the presence of 2 mM magnesium ion, None = 100.
Where [6] appears, read: sorbitol-6-phosphate dehydrogenase.

Like-named read-outs stand apart in the source and are kept apart here.

Sequence of sorbitol kinase (A0AAX3LD49 entry or part of it): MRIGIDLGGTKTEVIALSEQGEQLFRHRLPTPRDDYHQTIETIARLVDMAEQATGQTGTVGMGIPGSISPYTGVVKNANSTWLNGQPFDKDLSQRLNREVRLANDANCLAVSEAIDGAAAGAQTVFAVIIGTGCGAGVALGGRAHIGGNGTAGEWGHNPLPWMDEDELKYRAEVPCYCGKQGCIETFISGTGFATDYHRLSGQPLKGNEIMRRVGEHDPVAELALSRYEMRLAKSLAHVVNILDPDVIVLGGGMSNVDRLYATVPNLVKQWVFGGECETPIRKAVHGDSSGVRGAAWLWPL

In the case of 2-deoxyglucose, in test [1] (setting [3]), the “Relative activity (%)” value is on record as 0%.
Regarding `Nc1ncnc2c1ncn2[C@@H]1O[C@H](COP(=O)(O)OP(=O)(O)OP(=O)(O)O)[C@@H](O)[C@H]1O` [ATP], the “Relative activity as phosphate donor” value in test [1] came out at 100%.
Consider `[Ba+2].[Cl-].[Cl-]` [BaCl2], for which the Relateive activity in test [2] (setting [4]) was found to be 32.
Molecule `[Cl-].[Cs+]` [CsCl] gave a Relateive activity in test [2] (setting [4]) of 100. Besides, the “Relative activity (%)” value in test [1] (setting [5]) was found to be 85%.
As for `Nc1nc2c(ncn2[C@@H]2O[C@H](COP(=O)(O)OP(=O)(O)OP(=O)(O)O)[C@@H](O)[C@H]2O)c(=O)[nH]1` [GTP], the “Relative activity as phosphate donor” value in test [1] was determined as 11.8%.
For `O=P(O)(O)OC1O[C@H](CO)[C@H](O)[C@H](O)[C@H]1O` (stereo partly drawn) [Galactose-1-phosphate], the “Relative activity (5)” value in test [2] is listed as 0.
Still for that read-out and setting: in the case of `O=P(O)(O)OC[C@H]1OC(O)[C@H](O)[C@@H](O)[C@@H]1O` (stereo partly drawn) [Glucose-6-phosphate] it was 0.
For the molecule `O=c1[nH]cnc2c1ncn2[C@@H]1O[C@H](COP(=O)(O)OP(=O)(O)OP(=O)(O)O)[C@@H](O)[C@H]1O` [ITP], in test [1], the “Relative activity as phosphate donor” value was 40.5%.
Take `[Cl-].[K+]` [KCl]: the Relateive activity in test [2] (setting [4]) is 100. In addition, the “Effect on sorbitol kinase activity (in words)” value in test [1] (2 mM, Table 2) is reported as “activated”. Also, in test [1] (setting [5]), the “Relative activity (%)” value amounted to 180%.
On to `[Cl-].[Li+]` [LiCl], for which the Relateive activity in test [2] (setting [4]) is given as 100. Besides, the “Relative activity (%)” value in test [1] (setting [5]) is recorded as 74.3%.
As for `OC[C@@H](O)[C@@H](O)[C@H](O)[C@H](O)CO` [Mannitol], the “Relative activity (5)” value in test [2] stood at 0.
In the case of `[Cl-].[Cl-].[Mg+2]` [MgCl2], the Relateive activity in test [2] (setting [4]) was 100.
`[Cl][Mn][Cl]` [MnCl2] returned a Relateive activity in test [2] (setting [4]) of 40.
Take `NC(=O)c1ccc[n+]([C@@H]2O[C@H](COP(=O)([O-])OP(=O)(O)OC[C@H]3O[C@@H](n4cnc5c(N)ncnc54)[C@H](O)[C@@H]3O)[C@@H](O)[C@H]2O)c1` [NAD]: the Km (usually the concentration of substrate that gives half-maximal velocity) in test [2] (setting [6]) turned out to be 130 ± 50 µM.
In the case of `[Cl-].[Na+]` [NaCl], in test [2] (sorbitol-6-phosphate dehydrogenase, 1000 µM), the Relateive activity was 100. In addition, in test [1], the “Relative activity (%)” value came out at 112%.
With `[N-]=[N+]=[N-].[Na+]` [NaN3], the “Relative activity (%)” value in test [1] (setting [5]) is 123%.
In test [2] (setting [4]), `[Cl][Pb][Cl]` [PbCl2] yielded a Relateive activity of 2. For the same molecule, in test [2] (1 mM metal ions), the “Effect on sorbitol-6-phosphate dehydrogenase activity (in words)” value is reported as “Strong inhibition”.
For the molecule `OC[C@H]1O[C@H](O[C@H]2O[C@H](CO)[C@@H](O)[C@H](O)[C@H]2O)[C@H](O)[C@@H](O)[C@@H]1O` [Treharose], the “Relative activity (5)” value in test [2] turned out to be 0.
Consider `O=c1ccn([C@@H]2O[C@H](COP(=O)(O)OP(=O)(O)OP(=O)(O)O)[C@@H](O)[C@H]2O)c(=O)[nH]1` [UTP], for which the “Relative activity as phosphate donor” value in test [1] is on record as 3.6%.
`[Cl-].[Cl-].[Zn+2]` [ZnCl2] showed a Relateive activity in test [2] (setting [4]) of 6.
`O=C(COP(=O)(O)O)[C@@H](O)[C@H](O)[C@H](O)COP(=O)(O)O` [fructose-1,6-diphosphate]: in test [2], the “Relative activity (5)” value came to 0.
Take `O=P(O)(O)OC[C@H]1OC(O)[C@H](O)[C@@H](O)[C@H]1O` (stereo partly drawn) [galactose-6-phosphate]: the “Relative activity (5)” value in test [2] was determined as 0.
`O=P(O)(O)OC1O[C@H](CO)[C@@H](O)[C@H](O)[C@H]1O` (stereo partly drawn) [glucose-1-phosphate]: the “Relative activity (5)” value in test [2] amounted to 0.
As to `O=P(O)(O)OC[C@@H](O)[C@@H](O)[C@H](O)[C@@H](O)CO` [sorbitol-6-phosphate], the Km in test [2] (setting [6]) is 2000 ± 500 µM. Moreover, the “Relative activity (5)” value in test [2] was 100.
For the molecule `NC(=S)c1ccc[n+]([C@@H]2O[C@H](COP(=O)([O-])OP(=O)(O)OC[C@H]3O[C@@H](n4cnc5c(N)ncnc54)[C@H](O)[C@@H]3O)[C@@H](O)[C@H]2O)c1` [thio NAD], in test [2] (setting [6]), the Km was 140 ± 50 µM.
Turning to Xylose, the “Relative activity (%)” value in test [1] (setting [3]) came out at 0%.
